{"source": "paper PMC4128710", "about": "(Biochemical pharmacology, 2014)", "key": {"[1]": {"tested_on": "MIN-6 mouse pancreatic β cells", "assay": "Insulin release in MIN6 cells", "type": "cell-based", "details": "MIN-6 cells, 16.7 mM glucose, 1 h"}, "[2]": {"molecular_target": "T1, mouse A2BAR (Mus musculus, UniProt Q60614)", "T1 sequence (Q60614 1-332)": "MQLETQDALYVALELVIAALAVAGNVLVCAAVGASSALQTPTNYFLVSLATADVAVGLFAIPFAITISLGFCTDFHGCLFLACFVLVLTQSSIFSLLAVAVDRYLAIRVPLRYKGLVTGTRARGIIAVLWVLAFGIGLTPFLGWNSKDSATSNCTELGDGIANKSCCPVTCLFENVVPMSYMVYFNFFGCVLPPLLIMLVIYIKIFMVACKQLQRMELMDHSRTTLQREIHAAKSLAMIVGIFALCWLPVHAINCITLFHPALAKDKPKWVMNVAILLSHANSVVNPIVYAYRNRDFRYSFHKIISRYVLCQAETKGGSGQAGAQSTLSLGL", "assay": "β-Arrestin2 translocation in PathHunter CHO cells", "details": "PathHunter CHO cells, mouse A2BAR"}, "[3]": {"tested_on": "A1 and A3 ARs", "assay": "Inhibition of forskolin-stimulated cAMP accumulation"}, "[4]": {"molecular_target": "T2, A2BAR (Homo sapiens, UniProt P29275)", "T2 sequence (P29275 1-332)": "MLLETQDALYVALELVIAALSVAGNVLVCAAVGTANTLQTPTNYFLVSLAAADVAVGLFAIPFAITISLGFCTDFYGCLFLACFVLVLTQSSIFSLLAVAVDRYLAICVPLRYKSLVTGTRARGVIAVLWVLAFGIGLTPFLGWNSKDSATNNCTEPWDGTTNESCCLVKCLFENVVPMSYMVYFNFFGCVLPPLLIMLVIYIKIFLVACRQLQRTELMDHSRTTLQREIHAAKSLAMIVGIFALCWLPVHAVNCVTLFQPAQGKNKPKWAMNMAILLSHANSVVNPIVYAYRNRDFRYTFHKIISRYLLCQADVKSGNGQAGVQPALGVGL", "assay": "ERK1/2 phosphorylation in T24 cells", "details": "T24 cells"}, "[5]": {"molecular_target": "T2, A2BAR", "assay": "Intracellular calcium mobilization in HEK293 cells", "details": "HEK293 cells, endogenous A2BAR"}, "[6]": {"molecular_target": "T2, A2BAR", "assay": "cAMP accumulation in HEK293 cells endogenously expressing the A2BAR", "details": "HEK293 cells, endogenous A2BAR"}, "[7]": {"molecular_target": "T2, A2BAR", "assay": "Intracellular calcium mobilization in T24 cells", "details": "T24 cells"}, "[8]": {"molecular_target": "T2, A2BAR", "assay": "ERK1/2 phosphorylation in HEK293 cells overexpressing the A2BAR", "details": "HEK293 cells overexpressing A2BAR"}, "[9]": {"molecular_target": "T2, A2BAR", "assay": "cAMP accumulation in T24 cells endogenously expressing the A2BAR", "details": "T24 cells"}, "[10]": {"molecular_target": "T2, A2BAR", "assay": "cAMP accumulation in HEK293 cells overexpressing the A2BAR", "details": "HEK293 cells overexpressing A2BAR"}, "[11]": {"molecular_target": "T2, A2BAR", "assay": "Intracellular calcium mobilization in HEK293 cells overexpressing the A2BAR", "details": "HEK293 cells overexpressing A2BAR"}, "[12]": {"molecular_target": "T2, A2BAR", "assay": "ERK1/2 phosphorylation in HEK293 cells", "details": "HEK293 cells, endogenous A2BAR"}}, "data": [{"compound": "CCCn1c(=O)[nH]c2nc(-c3ccc(S(=O)(=O)N4CCN(c5ccc(Cl)cc5)CC4)cc3)[nH]c2c1=O", "note": "[PSB603]", "values": [{"measurement": "Glucose stimulated insulin secretion", "setting": "[1]", "value": "induced insulin secretion"}]}, {"compound": "C[C@H](Cc1ccccc1)Nc1ncnc2c1ncn2[C@@H]1O[C@H](CO)[C@@H](O)[C@H]1O", "note": "[R-PIA, R-N^6-(phenylisopropyl)adenosine]", "values": [{"measurement": "Max effect β-arrestin (% of effect of NECA)", "setting": "[2]", "value": "13.2 ±1.1", "unit": "%"}]}, {"compound": "CNC(=O)[C@H]1O[C@@H](n2cnc3c(NCc4cccc(I)c4)nc(Cl)nc32)[C@H](O)[C@@H]1O", "note": "[Cl-IB-MECA]", "values": [{"measurement": "inhibition of forskolin-stimulated cAMP accumulation", "setting": "[3]", "value": "inactive"}]}, {"compound": "N#Cc1c(N)nc(SCc2ncc[nH]2)c(C#N)c1-c1ccccc1", "note": "[LUF5833, 2-aminophenyl-6-(1H-imidazol-2-ylmethylsulfanyl)pyridine-3,5-dicarbonitrile]", "values": [{"measurement": "Max effect β-arrestin (% of effect of NECA)", "setting": "[2]", "value": "9.7 ±0.6", "unit": "%"}]}, {"compound": "Nc1ncnc2c1ncn2[C@@H]1O[C@H](C(=O)NC2CC2)[C@@H](O)[C@H]1O", "note": "[CPCA, adenosine-5′-N-cyclopropyluronamide]", "values": [{"measurement": "ERK1/2 stimulation relative to basal value", "setting": "[4]", "value": "≤ 2", "unit": "fold"}, {"measurement": "Max effect ERK1/2 (% of effect of NECA)", "setting": "[4]", "value": "101 ±8", "unit": "%"}, {"measurement": "EC50", "setting": "[4]; read-out: EC50 ERK1/2", "value": "369 ± 32", "unit": "nM"}, {"measurement": "Max effect Calcium (% of effect of NECA)", "setting": "[5]", "value": "98.7 ±6.6", "unit": "%"}, {"measurement": "EC50", "setting": "[5]; read-out: EC50 Calcium", "value": "2620 ± 460", "unit": "nM"}, {"measurement": "Max effect cAMP (% of effect of NECA)", "setting": "[6]", "value": "102 ±9", "unit": "%"}, {"measurement": "EC50", "setting": "[6]; read-out: EC50 cAMP", "value": "267 ± 32", "unit": "nM"}, {"measurement": "Max effect Calcium (% of effect of NECA)", "setting": "[7]", "value": "101 ±7", "unit": "%"}, {"measurement": "EC50", "setting": "[7]; read-out: EC50 Calcium", "value": "1930 ± 680", "unit": "nM"}, {"measurement": "Max effect β-arrestin (% of effect of NECA)", "setting": "[2]", "value": "109 ±9", "unit": "%"}, {"measurement": "EC50", "setting": "[2]; read-out: EC50 β-arrestin", "value": "5060 ± 1410", "unit": "nM"}, {"measurement": "Max effect ERK1/2 (% of effect of NECA)", "setting": "[8]", "value": "100 ±6", "unit": "%"}, {"measurement": "EC50", "setting": "[8]; read-out: EC50 ERK1/2", "value": "1860 ± 240", "unit": "nM"}, {"measurement": "Max effect cAMP (% of effect of NECA)", "setting": "[9]; NECA = 100%", "value": "98.5 ±1.9", "unit": "%"}, {"measurement": "EC50", "setting": "[9]; read-out: EC50 cAMP", "value": "177 ± 67", "unit": "nM"}, {"measurement": "Max effect cAMP (% of effect of NECA)", "setting": "[10]", "value": "98.9 ±6.6", "unit": "%"}, {"measurement": "EC50", "setting": "[10]; read-out: EC50 cAMP", "value": "32.8 ± 4.2", "unit": "nM"}, {"measurement": "Max effect Calcium (% of effect of NECA)", "setting": "[11]", "value": "102 ±4", "unit": "%"}, {"measurement": "EC50", "setting": "[11]; read-out: EC50 Calcium", "value": "1490 ± 360", "unit": "nM"}, {"measurement": "Max effect ERK1/2 (% of effect of NECA)", "setting": "[12]", "value": "99.3 ±2.4", "unit": "%"}, {"measurement": "EC50", "setting": "[12]; read-out: EC50 ERK1/2", "value": "1030 ± 230", "unit": "nM"}]}]}
